Measurements reported in US12611406B2, “Oxopiperazine derivatives for the treatment of cancer” (Inthera Bioscience AG, priority 2020, dated 2026).
Entries after “also recorded” stand apart in the source; their conditions may differ. Like-named read-outs stand apart in the source and are kept apart here.

Experiments:
[1] = 14-day daily oral repeated-dose exploratory study in CD-1 mice (mesylate salt); format: in vivo; settings: for AUC(0-t) / Cmax: CD-1, mouse, in vivo, po
Method: This study explored the TK profile of Compound 1 after 14 days once daily oral dosing in male and female CD-1 mice.
Compound 1 (mesylate salt) was administered once daily for 14 consecutive days by oral gavage to groups of CD-1 mice (n=8/sex/group) at dose levels of 0 (control), 1, 5, 10 or 15 mg/kg/day. A suspension of 0.5% Methylcellulose (w/v) and 0.1% Polysorbate 80 (Tween 80) (v/v) was used as vehicle. For TK investigations sparse blood sampling was performed on treatment Days 1 and 14; three blood samples per animal and day were collected either pre-dose, 2 and 8 hours after administration (4 male and female animals per group) or 1, 4, and 24 hours (remaining 4 male and 4 female animals per group) after administration.

[2] = tested on: SNU-5; assay: SNU-5 gastric cancer CDX mouse model; format: in vivo; settings: for Tumor growth inhibition: p <0.001
Method: Left panel: Tumor growth curves. Right panel: Body weight development. […] QD: once daily treatment; po: per os.
Left panel: Tumor growth curves. Right panel: Body weight development. […] QW: once weekly treatment. p.o.: per oral.
Compound 1 (3 mg/kg) was administered orally to the gastric cancer CDX model of SNU-5 cells (FIG. 8C), which harbor a loss-of-function of p53 and mutations in the CDKN2A gene loci, the latter controlling the Rb and p53 pathways.
Values larger than 100% indicate tumor regression.

[3] = tested on: human enzymes, transporters, kinases, receptors and ion channels; assay: In vitro safety pharmacology panels
Method: Compound 1 was tested using in vitro safety pharmacology panels encompassing human enzymes, transporters, kinases, receptors and ion channels thought to be potential contributors to adverse drug reactions.

[4] = 5-day daily intravenous repeated-dose TK study in CD-1 mice (mesylate salt); format: in vivo; settings: for half-life: both sexes, CD-1, mouse, blood, intravenous
Method: The aim of the present study was to explore the TK of Compound 1 after 5 days of once daily intravenous dosing in male and female CD-1 mice, with a subsequent recovery phase of 9 days.
Compound 1 (mesylate salt) was administered once daily for 5 consecutive days by intravenous injection to groups of CD-1 mice (n=8/sex/group) at dose levels of 0 (control), 0.5, 2, 6, or 12 mg/kg/day. A suspension of 0.5% methylcellulose (w/v) in sterile water was used as vehicle. Blood samples were collected for hematology, clinical chemistry (Day 6 and 15), and pharmacokinetics evaluation.

CC(C)C[C@@H]1NCCN([C@@H](CC(C)C)C(=O)N2CCC3(C[C@@H]2C)OCC(CN2CCCC2)CO3)C1=O (stereo partly drawn) [Compound 1, (S)-3-isobutyl-1-((S)-4-methyl-1-((S)-8-methyl-3-(pyrrolidin-1-ylmethyl)-1,5-dioxa-9-azaspiro[5.5]undecan-9-yl)-1-oxopentan-2-yl)piperazin-2-one]
tolerability ([1]; 1, 5, 10, and 15 mg/kg/day orally once daily for 14 consecutive days): well-tolerated | AUC(0-t) ([1]; female, 1 mg/kg, F, Day 1): 33.1 ng·h/mL | Cmax ([1]; female, 1 mg/kg, F, Day 1): 6.4 ng/mL | AUC(0-t) ([1]; female, 1 mg/kg, F, Day 14): 112 ng·h/mL | Cmax ([1]; female, 1 mg/kg, F, Day 14): 16.6 ng/mL | AUC(0-t) ([1]; female, 5 mg/kg, F, Day 1): 258 ng·h/mL | Cmax ([1]; female, 5 mg/kg, F, Day 1): 67.6 ng/mL | AUC(0-t) ([1]; female, 5 mg/kg, F, Day 14): 478 ng·h/mL | Cmax ([1]; female, 5 mg/kg, F, Day 14): 115 ng/mL | AUC(0-t) ([1]; female, 10 mg/kg, F, Day 1): 304 ng·h/mL | Cmax ([1]; female, 10 mg/kg, F, Day 1): 60.5 ng/mL | AUC(0-t) ([1]; female, 10 mg/kg, F, Day 14): 690 ng·h/mL | Cmax ([1]; female, 10 mg/kg, F, Day 14): 97.7 ng/mL | AUC(0-t) ([1]; female, 15 mg/kg, F, Day 1): 711 ng·h/mL | Cmax ([1]; female, 15 mg/kg, F, Day 1): 140 ng/mL | AUC(0-t) ([1]; female, 15 mg/kg, F, Day 14): 1090 ng·h/mL | Cmax ([1]; female, 15 mg/kg, F, Day 14): 151 ng/mL | AUC(0-t) ([1]; male, 1 mg/kg, M, Day 1): 55.4 ng·h/mL | Cmax ([1]; male, 1 mg/kg, M, Day 1): 10.9 ng/mL | AUC(0-t) ([1]; male, 1 mg/kg, M, Day 14): 108 ng·h/mL | Cmax ([1]; male, 1 mg/kg, M, Day 14): 16.3 ng/mL | AUC(0-t) ([1]; male, 5 mg/kg, M, Day 1): 225 ng·h/mL | Cmax ([1]; male, 5 mg/kg, M, Day 1): 42.9 ng/mL | AUC(0-t) ([1]; male, 5 mg/kg, M, Day 14): 607 ng·h/mL | Cmax ([1]; male, 5 mg/kg, M, Day 14): 90 ng/mL | AUC(0-t) ([1]; male, 10 mg/kg, M, Day 1): 361 ng·h/mL | Cmax ([1]; male, 10 mg/kg, M, Day 1): 64.8 ng/mL | AUC(0-t) ([1]; male, 10 mg/kg, M, Day 14): 782 ng·h/mL | Cmax ([1]; male, 10 mg/kg, M, Day 14): 105 ng/mL | AUC(0-t) ([1]; male, 15 mg/kg, M, Day 1): 689 ng·h/mL | Cmax ([1]; male, 15 mg/kg, M, Day 1): 133 ng/mL | AUC(0-t) ([1]; male, 15 mg/kg, M, Day 14): 717 ng·h/mL | Cmax ([1]; male, 15 mg/kg, M, Day 14): 102 ng/mL | anti-tumor efficacy, every other week vs daily ([2]; 3 mg/kg oral): comparable anti-tumor efficacies | tumor growth ([2]; 30 mg/kg once every seven days for 7 weeks): almost complete inhibition of tumor growth | Tumor growth inhibition ([2]; once weekly 15 mg/kg/day, 7 weeks): 62% (<0.001)/ | Tumor growth inhibition ([2]; once weekly 30 mg/kg/day, 7 weeks): 91% (<0.001)/ | Tumor growth inhibition ([2]; once weekly 60 mg/kg/day as 30 mg/kg BID, 5 weeks): 98% (<0.001)/**5 weeks | responses in safety pharmacology panels [3]: No significant responses were detected | group mean initial blood concentration (CO) ([4]; 0.5 mg/kg/day, Day 1): 111 ng/mL | CO ([4]; 0.5 mg/kg/day, Day 5, female): 112 ng/mL | CO ([4]; 0.5 mg/kg/day, Day 5, male): 191 ng/mL | group mean initial blood concentration (CO) ([4]; 2 mg/kg/day, Day 1): 386 ng/mL | CO ([4]; 2 mg/kg/day, Day 5, female): 391 ng/mL | CO ([4]; 2 mg/kg/day, Day 5, male): 275 ng/mL | group mean initial blood concentration (CO) ([4]; 6 mg/kg/day, Day 1): 1257 ng/mL | CO ([4]; 6 mg/kg/day, Day 5, female): 641 ng/mL | CO ([4]; 6 mg/kg/day, Day 5, male): 778 ng/mL | group mean initial blood concentration (CO) ([4]; 12 mg/kg/day, Day 1): 1725 ng/mL | CO ([4]; 12 mg/kg/day, Day 5, female): 1548 ng/mL | CO ([4]; 12 mg/kg/day, Day 5, male): 1531 ng/mL | tolerability ([4]; 0.5, 2, 6, and 12 mg/kg/day intravenously once daily for 5 consecutive days): well tolerated; also recorded: well-tolerated | half-life ([4]; all groups, Day 1, read-out: terminal half-life): 1.1 to 1.3 h | half-life ([4]; over the dose interval, Day 5, read-out: elimination half-life): 1.1 to 1.9 h
